Measurements taken from publication PMC9954146, “Anti-Leukaemic Activity of Rilpivirine Is Mediated by Aurora A Kinase Inhibition” (Cancers, 2023).

Assays:
Assay in all cases: Kinase panel
Format in all cases: biochemical
Conditions in all cases: read-out: % Residual Activity
DYRK2(h) = molecular target: T1, DYRK2(h) (Homo sapiens, UniProt Q92630)
T1 construct: purchased Eurofins (KinaseProfiler)
In short: (§1)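 Selectivity panel (kinome-wide), rilpivirine as test compound. Readout: radiolabel incorporation. ATP = Km of the respective kinase. Ki calculated from IC50 (Cheng–Prusoff).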

[1] = molecular target: PI3 Kinase (p110a(E545K)/p85a)(h) (Homo sapiens, UniProt P42336, E545K)
In short: as §1

ROCK-I(h) = molecular target: T2, ROCK-I(h) (Homo sapiens, UniProt Q13464)
T2 construct: purchased Eurofins (KinaseProfiler)
In short: as §1

Lyn(m) = molecular target: T3, Lyn(m) (Mus musculus, UniProt P25911)
T3 construct: purchased Eurofins (KinaseProfiler)
In short: as §1

GCK(h) = molecular target: T4, GCK(h) (Homo sapiens, UniProt Q12851)
T4 construct: purchased Eurofins (KinaseProfiler)
In short: as §1

Met(M1268T)(h) = molecular target: T5, Met(M1268T)(h) (Homo sapiens, UniProt P08581, M1250T)
T5 construct: purchased Eurofins (KinaseProfiler)
In short: as §1

GCN2(h) = molecular target: T6, GCN2(h) (Homo sapiens, UniProt Q9P2K8)
T6 construct: purchased Eurofins (KinaseProfiler)
In short: as §1

Abl (M351T)(h) = molecular target: T7, Abl (M351T)(h) (Homo sapiens, UniProt P00519, M351T)
T7 construct: purchased Eurofins (KinaseProfiler)
In short: as §1

Rse(h) = molecular target: T8, Rse(h) (Homo sapiens, UniProt Q06418)
T8 construct: purchased Eurofins (KinaseProfiler)
In short: as §1

NDR2(h) = molecular target: T9, NDR2(h) (Homo sapiens, UniProt Q9Y2H1)
T9 construct: purchased Eurofins (KinaseProfiler)
In short: as §1

CHK2(I157T)(h) = molecular target: T10, CHK2(I157T)(h) (Homo sapiens, UniProt O96017, I157T)
T10 construct: purchased Eurofins (KinaseProfiler)
In short: as §1

MEKK2(h) = molecular target: T11, MEKK2(h) (Homo sapiens, UniProt Q9Y2U5)
T11 construct: purchased Eurofins (KinaseProfiler)
In short: as §1

EphA7(h) = molecular target: T12, EphA7(h) (Homo sapiens, UniProt Q15375)
T12 construct: purchased Eurofins (KinaseProfiler)
In short: as §1

GRK7(h) = molecular target: T13, GRK7(h) (Homo sapiens, UniProt Q8WTQ7)
T13 construct: purchased Eurofins (KinaseProfiler)
In short: as §1

CaMKI(h) = molecular target: T14, CaMKI(h) (Homo sapiens, UniProt Q14012)
T14 construct: purchased Eurofins (KinaseProfiler)
In short: as §1

Src(1-530)(h) = molecular target: T15, Src(1-530)(h) (Homo sapiens, UniProt P12931)
T15 construct: purchased Eurofins (KinaseProfiler)
In short: as §1

HIPK4(h) = molecular target: T16, HIPK4(h) (Homo sapiens, UniProt Q8NE63)
T16 construct: purchased Eurofins (KinaseProfiler)
In short: as §1

PKG1α(h) = molecular target: T17, PKG1α(h) (Homo sapiens, UniProt Q13976)
T17 construct: purchased Eurofins (KinaseProfiler)
In short: as §1

TAO1(h) = molecular target: T18, TAO1(h) (Homo sapiens, UniProt Q7L7X3)
T18 construct: purchased Eurofins (KinaseProfiler)
In short: as §1

CaMKK2(h) = molecular target: T19, CaMKK2(h) (Homo sapiens, UniProt Q96RR4)
T19 construct: purchased Eurofins (KinaseProfiler)
In short: as §1

Snk(h) = molecular target: T20, Snk(h) (Homo sapiens, UniProt Q9NYY3)
T20 construct: purchased Eurofins (KinaseProfiler)
In short: as §1

DCAMKL3(h) = molecular target: T21, DCAMKL3(h) (Homo sapiens, UniProt Q9C098)
T21 construct: purchased Eurofins (KinaseProfiler)
In short: as §1

PDGFRα(D842V)(h) = molecular target: T22, PDGFRα(D842V)(h) (Homo sapiens, UniProt P16234, D842V)
T22 construct: purchased Eurofins (KinaseProfiler)
In short: as §1

SRPK2(h) = molecular target: T23, SRPK2(h) (Homo sapiens, UniProt P78362)
T23 construct: purchased Eurofins (KinaseProfiler)
In short: as §1

CHK2(R145W)(h) = molecular target: T24, CHK2(R145W)(h) (Homo sapiens, UniProt O96017, R145W)
T24 construct: purchased Eurofins (KinaseProfiler)
In short: as §1

Aurora-C(h) = molecular target: T25, Aurora-C(h) (Homo sapiens, UniProt Q9UQB9)
T25 construct: purchased Eurofins (KinaseProfiler)
In short: as §1

WNK1(h) = molecular target: T26, WNK1(h) (Homo sapiens, UniProt Q9H4A3)
T26 construct: purchased Eurofins (KinaseProfiler)
In short: as §1

MSK1(h) = molecular target: T27, MSK1(h) (Homo sapiens, UniProt O75582)
T27 construct: purchased Eurofins (KinaseProfiler)
In short: as §1

CK1δ(h) = molecular target: T28, CK1δ(h) (Homo sapiens, UniProt P48730)
T28 construct: purchased Eurofins (KinaseProfiler)
In short: as §1

CK1α(h) = molecular target: T29, CK1α(h) (Homo sapiens, UniProt P48729)
T29 construct: purchased Eurofins (KinaseProfiler)
In short: as §1

PKR(h) = molecular target: T30, PKR(h) (Homo sapiens, UniProt P19525)
T30 construct: purchased Eurofins (KinaseProfiler)
In short: as §1

PKCι(h) = molecular target: T31, PKCι(h) (Homo sapiens, UniProt P41743)
T31 construct: purchased Eurofins (KinaseProfiler)
In short: as §1

PhKγ2(h) = molecular target: T32, PhKγ2(h) (Homo sapiens, UniProt P15735)
T32 construct: purchased Eurofins (KinaseProfiler)
In short: as §1

TGFBR2(h) = molecular target: T33, TGFBR2(h) (Homo sapiens, UniProt P37173)
T33 construct: purchased Eurofins (KinaseProfiler)
In short: as §1

JAK2(h) = molecular target: T34, JAK2(h) (Homo sapiens, UniProt O60674)
T34 construct: purchased Eurofins (KinaseProfiler)
In short: as §1

Met(D1246N)(h) = molecular target: T35, Met(D1246N)(h) (Homo sapiens, UniProt P08581, D1228N)
T35 construct: purchased Eurofins (KinaseProfiler)
In short: as §1

SIK(h) = molecular target: T36, SIK(h) (Homo sapiens, UniProt P57059)
T36 construct: purchased Eurofins (KinaseProfiler)
In short: as §1

BrSK1(h) = molecular target: T37, BrSK1(h) (Homo sapiens, UniProt Q8TDC3)
T37 construct: purchased Eurofins (KinaseProfiler)
In short: as §1

T15 sequence (P12931 1-530 limits assumed): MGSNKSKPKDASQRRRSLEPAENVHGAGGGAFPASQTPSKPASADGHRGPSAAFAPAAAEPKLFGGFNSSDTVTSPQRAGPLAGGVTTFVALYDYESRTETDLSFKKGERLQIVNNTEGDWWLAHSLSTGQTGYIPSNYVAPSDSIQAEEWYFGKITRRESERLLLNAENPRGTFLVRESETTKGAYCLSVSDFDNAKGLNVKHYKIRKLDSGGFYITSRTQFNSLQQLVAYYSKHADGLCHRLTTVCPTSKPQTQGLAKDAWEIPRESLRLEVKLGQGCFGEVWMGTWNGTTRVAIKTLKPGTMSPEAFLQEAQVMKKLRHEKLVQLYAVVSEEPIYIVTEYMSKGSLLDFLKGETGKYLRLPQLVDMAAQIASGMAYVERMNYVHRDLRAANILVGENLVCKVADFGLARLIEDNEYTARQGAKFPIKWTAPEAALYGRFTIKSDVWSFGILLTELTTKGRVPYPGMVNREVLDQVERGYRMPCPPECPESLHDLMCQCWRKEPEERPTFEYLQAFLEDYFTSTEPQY
T37 sequence (Q8TDC3 whole entry): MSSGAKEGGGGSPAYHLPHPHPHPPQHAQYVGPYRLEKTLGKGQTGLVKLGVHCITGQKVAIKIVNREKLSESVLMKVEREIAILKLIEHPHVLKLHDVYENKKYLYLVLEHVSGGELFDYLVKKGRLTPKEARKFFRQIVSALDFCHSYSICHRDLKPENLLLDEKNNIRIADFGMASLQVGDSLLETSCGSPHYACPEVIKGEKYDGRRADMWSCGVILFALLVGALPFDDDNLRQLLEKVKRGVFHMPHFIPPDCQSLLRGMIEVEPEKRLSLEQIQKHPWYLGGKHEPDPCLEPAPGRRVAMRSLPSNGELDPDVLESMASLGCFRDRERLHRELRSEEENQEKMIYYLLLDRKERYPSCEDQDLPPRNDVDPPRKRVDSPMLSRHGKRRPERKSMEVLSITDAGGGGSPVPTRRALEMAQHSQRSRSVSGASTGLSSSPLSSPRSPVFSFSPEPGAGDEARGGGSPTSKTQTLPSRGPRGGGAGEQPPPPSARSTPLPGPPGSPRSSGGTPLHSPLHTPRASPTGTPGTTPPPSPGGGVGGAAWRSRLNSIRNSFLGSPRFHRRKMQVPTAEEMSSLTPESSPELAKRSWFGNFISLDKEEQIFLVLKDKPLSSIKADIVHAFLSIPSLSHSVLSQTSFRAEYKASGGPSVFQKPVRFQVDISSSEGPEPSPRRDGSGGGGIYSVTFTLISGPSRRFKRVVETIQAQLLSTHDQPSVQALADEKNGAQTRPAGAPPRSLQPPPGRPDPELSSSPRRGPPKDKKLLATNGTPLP
T29 sequence (P48729 whole entry): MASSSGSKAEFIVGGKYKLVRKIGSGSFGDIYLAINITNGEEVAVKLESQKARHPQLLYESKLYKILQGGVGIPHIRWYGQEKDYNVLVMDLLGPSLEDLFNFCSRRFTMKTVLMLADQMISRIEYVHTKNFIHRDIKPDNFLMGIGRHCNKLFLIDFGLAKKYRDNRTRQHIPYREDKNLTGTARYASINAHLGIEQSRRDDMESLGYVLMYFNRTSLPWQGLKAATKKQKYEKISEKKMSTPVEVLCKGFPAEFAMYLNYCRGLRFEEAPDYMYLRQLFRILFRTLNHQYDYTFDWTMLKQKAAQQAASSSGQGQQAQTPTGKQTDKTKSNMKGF
T18 sequence (Q7L7X3 whole entry): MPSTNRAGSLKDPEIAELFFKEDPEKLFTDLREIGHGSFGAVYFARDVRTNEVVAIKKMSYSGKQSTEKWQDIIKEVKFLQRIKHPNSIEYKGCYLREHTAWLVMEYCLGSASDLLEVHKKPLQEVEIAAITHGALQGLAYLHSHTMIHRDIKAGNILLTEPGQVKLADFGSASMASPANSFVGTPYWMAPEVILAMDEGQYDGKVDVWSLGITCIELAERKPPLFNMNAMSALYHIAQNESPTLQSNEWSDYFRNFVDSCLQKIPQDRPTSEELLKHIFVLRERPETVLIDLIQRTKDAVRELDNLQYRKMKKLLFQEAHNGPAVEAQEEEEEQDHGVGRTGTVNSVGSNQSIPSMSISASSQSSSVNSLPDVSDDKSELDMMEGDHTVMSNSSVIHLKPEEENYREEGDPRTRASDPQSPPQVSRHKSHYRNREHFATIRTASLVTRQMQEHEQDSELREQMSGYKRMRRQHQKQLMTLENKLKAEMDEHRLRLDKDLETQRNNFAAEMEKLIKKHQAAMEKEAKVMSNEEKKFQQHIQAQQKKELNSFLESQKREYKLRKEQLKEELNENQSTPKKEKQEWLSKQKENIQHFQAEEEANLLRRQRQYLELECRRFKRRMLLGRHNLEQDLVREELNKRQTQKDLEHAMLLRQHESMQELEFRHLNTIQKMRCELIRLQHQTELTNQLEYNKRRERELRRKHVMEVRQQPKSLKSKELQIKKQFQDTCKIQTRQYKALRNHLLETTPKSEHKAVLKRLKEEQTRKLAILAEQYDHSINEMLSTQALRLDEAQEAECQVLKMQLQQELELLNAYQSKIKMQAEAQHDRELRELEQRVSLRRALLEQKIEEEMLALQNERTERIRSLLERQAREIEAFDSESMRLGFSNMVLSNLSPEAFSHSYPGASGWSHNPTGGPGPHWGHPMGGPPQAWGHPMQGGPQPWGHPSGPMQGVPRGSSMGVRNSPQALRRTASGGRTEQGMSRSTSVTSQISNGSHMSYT
T26 sequence (Q9H4A3 whole entry): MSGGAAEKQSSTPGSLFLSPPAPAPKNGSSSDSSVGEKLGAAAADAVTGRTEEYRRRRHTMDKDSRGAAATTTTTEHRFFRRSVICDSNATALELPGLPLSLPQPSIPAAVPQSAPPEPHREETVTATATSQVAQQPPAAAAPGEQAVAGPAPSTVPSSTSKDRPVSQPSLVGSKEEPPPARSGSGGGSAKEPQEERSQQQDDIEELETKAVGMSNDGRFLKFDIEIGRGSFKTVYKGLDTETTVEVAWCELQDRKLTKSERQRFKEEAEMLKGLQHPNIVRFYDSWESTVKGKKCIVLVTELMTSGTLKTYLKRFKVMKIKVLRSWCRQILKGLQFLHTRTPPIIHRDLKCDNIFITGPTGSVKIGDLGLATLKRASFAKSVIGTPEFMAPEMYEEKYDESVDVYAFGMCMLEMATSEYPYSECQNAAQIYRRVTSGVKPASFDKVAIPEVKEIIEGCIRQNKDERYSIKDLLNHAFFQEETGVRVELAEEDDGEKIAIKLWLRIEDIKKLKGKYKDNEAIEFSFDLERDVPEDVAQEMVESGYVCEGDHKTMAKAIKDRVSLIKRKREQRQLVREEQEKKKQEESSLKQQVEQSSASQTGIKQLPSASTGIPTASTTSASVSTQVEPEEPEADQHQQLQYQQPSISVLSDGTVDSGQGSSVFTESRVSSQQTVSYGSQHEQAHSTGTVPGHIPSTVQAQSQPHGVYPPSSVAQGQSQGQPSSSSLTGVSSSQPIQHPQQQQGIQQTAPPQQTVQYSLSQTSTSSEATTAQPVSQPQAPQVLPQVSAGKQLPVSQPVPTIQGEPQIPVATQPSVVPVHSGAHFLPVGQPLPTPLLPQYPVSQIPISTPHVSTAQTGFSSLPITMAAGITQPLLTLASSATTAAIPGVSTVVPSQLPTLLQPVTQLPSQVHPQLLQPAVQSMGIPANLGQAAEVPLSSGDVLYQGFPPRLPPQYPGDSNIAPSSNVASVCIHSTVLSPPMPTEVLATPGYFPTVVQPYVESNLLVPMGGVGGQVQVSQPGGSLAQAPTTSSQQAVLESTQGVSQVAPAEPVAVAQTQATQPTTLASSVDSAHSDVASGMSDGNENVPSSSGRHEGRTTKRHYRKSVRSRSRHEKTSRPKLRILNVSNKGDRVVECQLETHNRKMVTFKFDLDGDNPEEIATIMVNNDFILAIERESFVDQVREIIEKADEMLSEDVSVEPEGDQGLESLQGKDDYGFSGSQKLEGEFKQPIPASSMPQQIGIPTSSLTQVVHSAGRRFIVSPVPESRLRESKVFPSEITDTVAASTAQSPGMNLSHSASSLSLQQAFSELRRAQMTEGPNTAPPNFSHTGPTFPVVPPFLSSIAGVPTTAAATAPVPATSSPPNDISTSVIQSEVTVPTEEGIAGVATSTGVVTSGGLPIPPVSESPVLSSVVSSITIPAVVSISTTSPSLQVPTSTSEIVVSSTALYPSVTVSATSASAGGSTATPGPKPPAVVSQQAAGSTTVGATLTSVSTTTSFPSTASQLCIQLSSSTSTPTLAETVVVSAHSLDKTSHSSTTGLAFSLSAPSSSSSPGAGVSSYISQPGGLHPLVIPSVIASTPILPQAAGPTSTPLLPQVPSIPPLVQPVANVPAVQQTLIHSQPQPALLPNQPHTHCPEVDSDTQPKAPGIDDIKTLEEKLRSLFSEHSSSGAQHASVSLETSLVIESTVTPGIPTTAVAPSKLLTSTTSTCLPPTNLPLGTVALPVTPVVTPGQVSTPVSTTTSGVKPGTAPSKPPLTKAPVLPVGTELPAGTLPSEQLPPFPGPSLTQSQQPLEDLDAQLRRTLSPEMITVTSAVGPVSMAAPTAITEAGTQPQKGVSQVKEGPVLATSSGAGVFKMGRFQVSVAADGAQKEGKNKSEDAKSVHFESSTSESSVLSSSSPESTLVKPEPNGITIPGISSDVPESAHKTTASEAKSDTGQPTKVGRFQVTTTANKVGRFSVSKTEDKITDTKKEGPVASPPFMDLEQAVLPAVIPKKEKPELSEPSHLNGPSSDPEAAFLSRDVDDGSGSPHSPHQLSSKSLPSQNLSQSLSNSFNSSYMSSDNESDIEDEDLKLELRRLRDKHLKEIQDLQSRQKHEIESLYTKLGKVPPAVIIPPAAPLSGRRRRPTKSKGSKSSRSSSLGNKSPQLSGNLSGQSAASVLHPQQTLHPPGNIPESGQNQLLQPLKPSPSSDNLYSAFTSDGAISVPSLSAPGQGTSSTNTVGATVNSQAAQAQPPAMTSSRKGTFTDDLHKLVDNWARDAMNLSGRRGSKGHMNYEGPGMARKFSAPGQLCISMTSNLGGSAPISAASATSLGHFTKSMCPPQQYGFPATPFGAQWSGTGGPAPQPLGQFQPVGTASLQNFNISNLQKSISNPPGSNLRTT

Cc1cc(/C=C/C#N)cc(C)c1Nc1ccnc(Nc2ccc(C#N)cc2)n1 [rilpivirine, (E)-4-((4-((4-(2-cyanoethenyl)-2,6-dimethylphenyl)amino)pyrimidin-2-yl)amino)benzonitrile]
remaining activity at 1 µM (DYRK2(h)): 89% | remaining activity at 1 µM [1]: 98% | remaining activity at 1 µM (ROCK-I(h)): 95% | remaining activity at 1 µM (Lyn(m)): 25% | remaining activity at 1 µM (GCK(h)): 99% | remaining activity at 1 µM (Met(M1268T)(h)): 109% | remaining activity at 1 µM (GCN2(h)): 93% | remaining activity at 1 µM (Abl (M351T)(h)): 74% | remaining activity at 1 µM (Rse(h)): 66% | remaining activity at 1 µM (NDR2(h)): 100% | remaining activity at 1 µM (CHK2(I157T)(h)): 97% | remaining activity at 1 µM (MEKK2(h)): 104% | remaining activity at 1 µM (EphA7(h)): 96% | remaining activity at 1 µM (GRK7(h)): 70% | remaining activity at 1 µM (CaMKI(h)): 92% | remaining activity at 1 µM (Src(1-530)(h)): 31% | remaining activity at 1 µM (HIPK4(h)): 87% | remaining activity at 1 µM (PKG1α(h)): 88% | remaining activity at 1 µM (TAO1(h)): 41% | remaining activity at 1 µM (CaMKK2(h)): 109% | remaining activity at 1 µM (Snk(h)): 98% | remaining activity at 1 µM (DCAMKL3(h)): 95% | remaining activity at 1 µM (PDGFRα(D842V)(h)): 79% | remaining activity at 1 µM (SRPK2(h)): 91% | remaining activity at 1 µM (CHK2(R145W)(h)): 76% | remaining activity at 1 µM (Aurora-C(h)): 93% | remaining activity at 1 µM (WNK1(h)): 95% | remaining activity at 1 µM (MSK1(h)): 97% | remaining activity at 1 µM (CK1δ(h)): 99% | remaining activity at 1 µM (CK1α(h)): 103% | remaining activity at 1 µM (PKR(h)): 92% | remaining activity at 1 µM (PKCι(h)): 99% | remaining activity at 1 µM (PhKγ2(h)): 83% | remaining activity at 1 µM (TGFBR2(h)): 94% | remaining activity at 1 µM (JAK2(h)): 72% | remaining activity at 1 µM (Met(D1246N)(h)): 102% | remaining activity at 1 µM (SIK(h)): 66% | remaining activity at 1 µM (BrSK1(h)): 84%
